Tested on: Type I Collagen gene Col1a1 expression
Assay: Precision cut lung slices, acute bleomycin exposure, Col1a1 expression
Format: cell-based, mice (C57BL/6)
Details: 3 days culture; integrin inhibitors at IC50 for TGF-beta activation; pan-αV and ALK5 inhibitors at 10× reported IC50; FIG. 3A
Procedure: Mice (C57BL/6) were administered 3 U/kg of bleomycin (Teva Pharmaceuticals; North Wales, PA) on day 0 via oropharyngeal aspiration while under anesthesia. On day 14, precision cut lung slices were obtained. Following euthanization, 2% low gelling temp agarose was injected into the mouse lungs via the trachea. […] The lobes were then subjected to precision slicing to obtain samples for culture using a microtome (Compresstome VF-300-OZ, Precisionary; Greenville, NC). Individual slices were distributed in a multiwell culture plate and cultured for 3 days under control (DMSO) and test compound conditions.

COCCN(CCCCc1ccc2c(n1)NCCC2)CC[C@H](Nc1ncnc2ccccc12)C(=O)O [Compound 5, (S)-4-((2-methoxyethyl)(4-(5,6,7,8-tetrahydro-1,8-naphthyridin-2-yl)butyl)amino)-2-(quinazolin-4-ylamino)butanoic acid]
Type I Collagen gene Col1a1 expression, normalized to DMSO control slices: decreased Type I Collagen gene Col1a1 expression substantially

From patent US20240350494A1, “THERAPEUTIC MODULATION OF INTEGRINS” (Pliant Therapeutics, Inc., priority 2021, published 2024)
